Measurements published in EP0868915A1, “An anti-spasmodic and antiinflammatory composition containing a NSAID, pentifenone and fenpiverinium” (PANACEA BIOTEC LIMITED, priority 1997, dated 1998).
Counter-ions that a name gives are not always drawn. Like-named read-outs stand apart in the source and are kept apart here.

Test system: distal portion of colon of rat
Assay: Inhibition of acetylcholine-induced contraction of isolated rat colon (antispasmodic activity)
Conditions: for Percentage inhibition of Ach (100 ng/ml) -Induced contraction After Diclofenac Na: in presence of Diclofenac Sodium 20µ/ml; for inhibition at 0.01 µg/mL: Pitofenone Hcl dose 10 ng/ml; for inhibition at 0.02 µg/mL: Pitofenone Hcl dose 20 ng/ml; for inhibition at 0.04 µg/mL: Pitofenone Hcl dose 40 ng/ml; for inhibition at 0.08 µg/mL: Pitofenone Hcl dose 80 ng/ml
Method: In order to see the effect of NSAID on the Antispasmodic activity of Pitifenone hydrochloride and Fenpiverinium bromide an experiment was conducted on standard isolated tissues of experimental animal. The tissue chosen for the experiment was the distal portion of colon of rat. The NSAID selected for the experiment was Diclofenac Sodium.
The percentage inhibition of Acetylcholine - induced contraction (at dosage level of 100ng/m) was studied with varied concentration of Pitofenone Hydrochloride in the dose range of 10-80 nano gm/ml.
The percentage inhibition of Acetylcholine -induced contraction (at dosage level of 100ng/ml) was studied with varied concentration of Fenpiverinium bromide in the dose range of 0.5-2 ng/ml.
The experiment was then conducted at the same dose level of Acetylcholine and Fenpiverinium bromide but in the presence of Diclofenac Sodium (dose level 20µ gm/ml). The data obtained in the experiment is collected in Table -2.

[1] = Fenpiverinium Bromide dose 0.5 (ng/ml)
[2] = Fenpiverinium Bromide dose 1.0 (ng/ml)
[3] = Fenpiverinium Bromide dose 2.0 (ng/ml)
[4] = in presence of Diclofenac Sodium 20 µg/ml, read-out: Percentage inhibition of Ach (100 ng/ml) -induced contraction After Diclofenac Na
[5] = read-out: Percentage inhibition of Ach (100 ng/ml) -induced contraction Before Diclofenac Na

With `O=C(O)Cc1ccccc1Nc1c(Cl)cccc1Cl` [Diclofenac, Diclofenac Sodium] the “action with Fenpiverinium bromide as an Antispasmodic” value (Diclofenac Sodium 20 µg/ml) was “synergistic (potentiating) action” and the “action with Pitofenone Hydrochloride as an Antispasmodic” value (Diclofenac Sodium 20 µg/ml) was “synergistic (potentiating) action”.
`C[N+]1(CCC(C(N)=O)(c2ccccc2)c2ccccc2)CCCCC1` [Fenpiverinium Bromide, Fenpiverinium bromide] was tested, and the “Percentage inhibition of Ach (100 ng/ml) -Induced contraction Before Diclofenac Na” value [1] was 43.8%, the “Percentage inhibition of Ach (100 ng/ml) -Induced contraction After Diclofenac Na” value [1] was 100% and the “Percentage inhibition of Ach (100 ng/ml) -Induced contraction Before Diclofenac Na” value [2] was 78.7%. For the same compound, the “Percentage inhibition of Ach (100 ng/ml) -Induced contraction After Diclofenac Na” value [2] was 100%, the “Percentage inhibition of Ach (100 ng/ml) -Induced contraction Before Diclofenac Na” value [3] was 100% and the “Percentage inhibition of Ach (100 ng/ml) -Induced contraction After Diclofenac Na” value [3] was 100%.
Compound `COC(=O)c1ccccc1C(=O)c1ccc(OCCN2CCCCC2)cc1` [Pitofenone Hcl, Pitofenone Hydrochloride] has an inhibition at 0.01 µg/mL [4] of 100%, an inhibition at 0.01 µg/mL [5] of 0% and an inhibition at 0.02 µg/mL [4] of 100%. The inhibition at 0.02 µg/mL [5] was 0%, the inhibition at 0.04 µg/mL [4] was 100% and the inhibition at 0.04 µg/mL [5] was 0%. For the same compound, the inhibition at 0.08 µg/mL [4] was 100% and the inhibition at 0.08 µg/mL [5] was 20.2%.
